Measured values published in patent publication US7737250B2, “Peptides for treating axonal damage, inhibition of neurotransmitter release and pain transmission, and blocking calcium influx in neurons” (Mount Sinai School of Medicine of New York University, priority 2003, dated 2010).

Assays:
Cav2.2 current = assay: Whole-cell calcium current recording in DRG neurons; format: cell-based, chick; conditions: 1.4 ng/ml peptide in recording pipette; after 2 minutes of recording
Description: Electrophysiology: Standard tight seal, whole-cell recording methods [Hamill et al.,1981 Pflugers Arch. 381, 85-10] were employed. Cells were incubated in an external solution containing 133 mM NaCl, 1 mM CaCl2, 0.8 mM MgCl2, 25 mM HEPES, 12.5 mM NaOH, 5mM glucose, 10 mM tetraethylammonium chloride, […] (pH 7.4). Experiments were performed on the stage of an inverted microscope. Recording pipettes were fabricated from microhemnatocrit tubing (Fisher) and filled with an internal recording solution containing 150 mM CsCl, 5 BAPTA, 5 MgATP, 10 HEPES (pH 7.2). All salts were obtained from Fluka. Initial pipette resistances were 0.8-1.2 MΩ. […]
Electrophysiology Data Analysis—Data was filtered at 3 kHz, acquired at 10-20 kHz and analyzed using PulseFit (HEKA) and IgorPro (WaveMetrics) on a Macintosh G3 computer. […] Such conditioning pulses have no effect on control currents recorded in the absence of GABA. During the application of the transmitter, test pulse currents measured before and after the conditioning pulse are subtracted to yield the voltage-dependent component. Test pulses measured following the conditioning pulse are subtracted from control currents (measured in the absence of GABA) to yield the voltage-independent component.

[1] = target: T1, L1-CAM-ankyrin interactions (Homo sapiens, UniProt Q01484); assay: Ankyrin recruitment assay: ankyrinB co-localization with L1-CAM at the membrane of transfected 293 cells; format: cell-based; conditions: 1.4 μg/ml peptide for 30 minutes
T1 construct: expressed in transfected cells; host or cells: human kidney 293 cells
Description: Cell culture aid transfection: Human kidney 293 cells were cultured in DMEM medium (Gibco) supplemented with penicillin, streptomycin, L-glutamine, and 10% fetal bovine serum (Hyclone). The pMyc-L1-CAM or pL1-CAM-GFP expression constructs were transfected into cultured human kidney 293 cells using Lipofectamine plus (Invitrogen) according to manufacturer instructions. Cells were cultured for 24-48 hours and then used, or cultured continuously in the presence of 0.5 μg.mL G418 (Gibco) to select for stably transfected cells lines, to generate stable pooled lines of L1-CAM-expressing cells.
In some instances, transfected 293 cells were treated with neural growth factor (NGF) or epidermal growth factor (EGF) to stimulate phosphorylation of tyrosine 1229 (Y1229) of the L1-CAM cytoplasmic domain, and thereby inhibit ankyrin binding. In these cases, cells were treated with 50 ng/mL EGF (Gibco) or 100 ng/mL NGF (Gibco) for 1 hour prior to the assay. […]
Ankyrin and L1-CAM were detected by indirect immunofluorescence in double-labeled confocal sections through cell aggregates to permit the visualization of L1 and ankyrinB at the cell membrane. Expression of myc-L1-CAM was detected using a polyclonal anti-L1-CAM rabbit antibody. […] Ankyrin was detected using a monoclonal anti-ankyrinB mouse antibody (BD PharMingen). […]
Quantification of ankyrin immunolocalization: Confocal micrographs were then used to quantify the degree of ankyrin localization to the cell membrane of myc-L1-CAM expressing cells. Images were analyzed using ImageJ (NIH) under Macintosh OSX. The method for quantifying ankyrinB localization to the membrane uses densitometry of a line scan perpendicular to and crossing a cell-cell junction. […]
The densitometry intensity profile of the scanned line was used to determine a minimum ankyrinB signal for comparison to the value of the ankyrinB signal at the point where the maximum signal in the L1-CAM channel occurs. […] Minima were determined from the regions of the line overlapping the cytoplasm of either of the two cells. […]

T1 sequence (Q01484 whole entry): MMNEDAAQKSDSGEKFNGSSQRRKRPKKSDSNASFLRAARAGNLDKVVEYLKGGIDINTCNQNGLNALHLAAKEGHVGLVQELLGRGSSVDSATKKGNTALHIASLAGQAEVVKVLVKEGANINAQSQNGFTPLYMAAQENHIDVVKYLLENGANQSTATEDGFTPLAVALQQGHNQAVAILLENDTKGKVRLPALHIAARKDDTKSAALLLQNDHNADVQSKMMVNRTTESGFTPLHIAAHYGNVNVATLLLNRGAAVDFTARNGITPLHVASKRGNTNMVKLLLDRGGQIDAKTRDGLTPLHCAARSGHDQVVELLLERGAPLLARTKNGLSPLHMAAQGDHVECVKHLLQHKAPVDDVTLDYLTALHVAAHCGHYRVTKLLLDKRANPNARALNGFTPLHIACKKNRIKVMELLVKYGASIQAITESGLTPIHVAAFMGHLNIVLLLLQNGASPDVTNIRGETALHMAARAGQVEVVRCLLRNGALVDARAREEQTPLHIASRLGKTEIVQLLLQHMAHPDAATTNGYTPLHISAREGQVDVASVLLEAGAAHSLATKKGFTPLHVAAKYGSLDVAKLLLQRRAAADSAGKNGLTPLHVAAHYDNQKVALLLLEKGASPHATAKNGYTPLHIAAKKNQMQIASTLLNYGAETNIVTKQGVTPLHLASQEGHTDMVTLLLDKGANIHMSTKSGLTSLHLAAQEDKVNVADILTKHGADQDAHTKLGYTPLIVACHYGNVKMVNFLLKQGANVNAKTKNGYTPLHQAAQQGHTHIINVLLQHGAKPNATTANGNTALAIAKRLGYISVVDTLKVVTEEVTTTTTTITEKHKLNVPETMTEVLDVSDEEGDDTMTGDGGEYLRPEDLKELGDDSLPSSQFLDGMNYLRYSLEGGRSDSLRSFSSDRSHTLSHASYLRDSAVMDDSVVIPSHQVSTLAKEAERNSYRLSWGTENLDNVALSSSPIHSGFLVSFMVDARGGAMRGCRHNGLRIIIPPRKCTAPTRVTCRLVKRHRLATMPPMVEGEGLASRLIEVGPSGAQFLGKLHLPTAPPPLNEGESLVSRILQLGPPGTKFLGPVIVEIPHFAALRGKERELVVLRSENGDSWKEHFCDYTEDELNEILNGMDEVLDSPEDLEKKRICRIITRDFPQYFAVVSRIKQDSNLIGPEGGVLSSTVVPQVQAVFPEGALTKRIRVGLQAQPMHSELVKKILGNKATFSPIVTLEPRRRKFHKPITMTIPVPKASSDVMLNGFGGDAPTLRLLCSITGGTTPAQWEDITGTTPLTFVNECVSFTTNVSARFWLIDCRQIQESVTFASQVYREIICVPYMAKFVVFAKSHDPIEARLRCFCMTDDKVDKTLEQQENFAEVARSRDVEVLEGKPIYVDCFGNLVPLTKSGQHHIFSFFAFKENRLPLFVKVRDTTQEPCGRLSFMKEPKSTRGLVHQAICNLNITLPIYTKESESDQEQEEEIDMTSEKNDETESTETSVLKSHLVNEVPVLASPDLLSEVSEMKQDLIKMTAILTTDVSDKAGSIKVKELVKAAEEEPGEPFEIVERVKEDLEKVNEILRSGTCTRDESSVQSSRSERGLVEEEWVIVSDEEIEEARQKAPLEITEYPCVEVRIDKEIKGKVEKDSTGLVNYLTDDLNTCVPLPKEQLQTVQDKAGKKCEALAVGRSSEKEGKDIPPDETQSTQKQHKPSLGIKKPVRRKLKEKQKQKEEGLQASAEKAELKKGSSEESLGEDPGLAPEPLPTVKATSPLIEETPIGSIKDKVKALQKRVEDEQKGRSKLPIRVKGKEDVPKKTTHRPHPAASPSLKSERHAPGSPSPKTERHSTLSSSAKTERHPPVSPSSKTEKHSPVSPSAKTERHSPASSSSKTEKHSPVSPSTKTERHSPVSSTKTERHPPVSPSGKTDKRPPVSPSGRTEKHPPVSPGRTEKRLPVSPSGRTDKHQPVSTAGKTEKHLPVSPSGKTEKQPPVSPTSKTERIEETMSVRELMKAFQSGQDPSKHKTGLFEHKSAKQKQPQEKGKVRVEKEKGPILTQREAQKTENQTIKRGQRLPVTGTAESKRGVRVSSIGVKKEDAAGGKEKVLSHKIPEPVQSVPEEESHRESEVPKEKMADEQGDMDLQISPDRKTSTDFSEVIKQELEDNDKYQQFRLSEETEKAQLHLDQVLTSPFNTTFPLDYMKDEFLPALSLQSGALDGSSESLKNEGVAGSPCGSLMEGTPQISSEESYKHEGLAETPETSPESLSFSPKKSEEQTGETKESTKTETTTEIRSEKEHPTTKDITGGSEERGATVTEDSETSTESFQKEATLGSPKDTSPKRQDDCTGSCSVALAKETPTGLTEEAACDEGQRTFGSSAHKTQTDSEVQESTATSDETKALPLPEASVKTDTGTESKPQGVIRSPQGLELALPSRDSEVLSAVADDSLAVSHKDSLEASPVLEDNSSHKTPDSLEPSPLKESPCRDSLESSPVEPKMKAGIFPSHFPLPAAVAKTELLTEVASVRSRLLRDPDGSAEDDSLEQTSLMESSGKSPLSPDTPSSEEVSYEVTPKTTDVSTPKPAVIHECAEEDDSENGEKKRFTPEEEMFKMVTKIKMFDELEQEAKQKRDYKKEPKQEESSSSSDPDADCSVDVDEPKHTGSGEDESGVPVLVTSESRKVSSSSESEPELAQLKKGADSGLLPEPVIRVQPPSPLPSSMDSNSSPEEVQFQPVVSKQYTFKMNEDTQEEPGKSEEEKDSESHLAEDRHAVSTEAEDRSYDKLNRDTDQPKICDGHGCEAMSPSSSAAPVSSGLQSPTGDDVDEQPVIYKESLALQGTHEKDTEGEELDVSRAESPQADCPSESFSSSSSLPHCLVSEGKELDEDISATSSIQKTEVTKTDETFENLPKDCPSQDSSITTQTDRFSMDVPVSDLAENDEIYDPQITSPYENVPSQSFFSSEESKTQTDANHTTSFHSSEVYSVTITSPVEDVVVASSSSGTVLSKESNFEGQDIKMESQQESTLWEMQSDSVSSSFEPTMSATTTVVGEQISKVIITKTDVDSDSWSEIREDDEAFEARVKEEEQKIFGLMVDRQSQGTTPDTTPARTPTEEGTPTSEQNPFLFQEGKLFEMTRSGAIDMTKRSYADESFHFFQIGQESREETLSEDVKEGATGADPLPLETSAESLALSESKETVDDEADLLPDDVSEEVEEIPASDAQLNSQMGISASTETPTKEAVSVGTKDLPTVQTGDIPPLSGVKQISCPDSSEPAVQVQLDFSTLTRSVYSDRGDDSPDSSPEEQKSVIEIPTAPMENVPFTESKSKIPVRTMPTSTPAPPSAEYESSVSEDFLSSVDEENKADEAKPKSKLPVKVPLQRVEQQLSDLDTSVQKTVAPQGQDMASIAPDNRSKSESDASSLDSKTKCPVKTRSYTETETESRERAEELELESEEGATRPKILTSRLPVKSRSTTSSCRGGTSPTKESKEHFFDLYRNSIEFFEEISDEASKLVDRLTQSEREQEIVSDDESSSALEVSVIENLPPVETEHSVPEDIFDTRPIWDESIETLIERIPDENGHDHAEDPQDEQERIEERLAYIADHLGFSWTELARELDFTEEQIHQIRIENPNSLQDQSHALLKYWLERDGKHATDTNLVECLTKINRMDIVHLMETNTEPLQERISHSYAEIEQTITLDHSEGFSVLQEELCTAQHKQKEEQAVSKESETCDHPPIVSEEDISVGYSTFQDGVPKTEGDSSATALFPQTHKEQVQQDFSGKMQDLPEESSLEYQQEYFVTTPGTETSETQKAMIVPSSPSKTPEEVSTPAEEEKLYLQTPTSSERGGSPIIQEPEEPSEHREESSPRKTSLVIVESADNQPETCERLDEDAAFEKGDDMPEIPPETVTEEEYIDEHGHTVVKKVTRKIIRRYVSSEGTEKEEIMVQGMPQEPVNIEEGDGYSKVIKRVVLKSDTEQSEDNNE

| Sequence | inhibition of calcium current (Cav2.2 current) | ankyrin co-localization with L1-CAM at the cell membrane (L1-CAM-ankyrin interactions) [1] |
| --- | --- | --- |
| RQIKIWFQNRRMKWKKQFNEDGSFIGQF [AP-YF] | 83+17% | inhibited L1-CAM-ankyrin interactions |
| RQIKIWFQNRRMKWKKFQGIFSGDENFQ [AP-Scramble] | no significant effect | no detectible effects |
